Assay: molar heat capacity at constant pressure; xn = mol fraction of the nth substance listed
Details: 101.3 kPa, Liquid, Small sample (50 mg) DSC

CCC(C)(C)O [2-methylbutan-2-ol] + CCCCCCC
Details | molar heat capacity at constant pressure [J/K/mol]
336.14 K, x1 = 0.1 | 252.29
336.14 K, x1 = 0.1547 | 260.02
336.14 K, x1 = 0.1999 | 265.26
336.14 K, x1 = 0.2993 | 273.56
336.14 K, x1 = 0.4051 | 279.11
336.14 K, x1 = 0.4986 | 282.65
336.14 K, x1 = 0.5981 | 285.05
336.14 K, x1 = 0.7015 | 286.5
336.14 K, x1 = 0.8023 | 286.51
336.14 K, x1 = 0.9139 | 285.7
336.14 K, x1 = 0.9609 | 284.91
337.15 K, x1 = 0.0061 | 240.08
337.15 K, x1 = 0.0249 | 241
337.15 K, x1 = 0.0494 | 244
337.15 K, x1 = 0.1 | 252.41
337.15 K, x1 = 0.1547 | 260.16
337.15 K, x1 = 0.1999 | 265.46
337.15 K, x1 = 0.2993 | 273.86
337.15 K, x1 = 0.4051 | 279.59
337.15 K, x1 = 0.4986 | 283.2
337.15 K, x1 = 0.5981 | 285.63
337.15 K, x1 = 0.7015 | 287.22
337.15 K, x1 = 0.8023 | 287.25
337.15 K, x1 = 0.9139 | 286.44
337.15 K, x1 = 0.9609 | 285.69
338.14 K, x1 = 0.0061 | 240.6
338.14 K, x1 = 0.0249 | 241.26
338.14 K, x1 = 0.0494 | 244.22
338.14 K, x1 = 0.1 | 252.49
338.14 K, x1 = 0.2993 | 274.14
338.14 K, x1 = 0.4051 | 280.08
338.14 K, x1 = 0.4986 | 283.63
338.14 K, x1 = 0.5981 | 286.18
338.14 K, x1 = 0.7015 | 287.86
338.14 K, x1 = 0.8023 | 287.94
338.14 K, x1 = 0.9139 | 287.19
338.16 K, x1 = 0.1547 | 260.35
338.16 K, x1 = 0.1999 | 265.67
338.16 K, x1 = 0.9609 | 286.41
339.14 K, x1 = 0.0061 | 241
339.14 K, x1 = 0.0249 | 241.65
339.14 K, x1 = 0.0494 | 244.45
339.14 K, x1 = 0.1 | 252.62
339.14 K, x1 = 0.1547 | 260.43
339.14 K, x1 = 0.1999 | 265.8
339.14 K, x1 = 0.2993 | 274.34
339.14 K, x1 = 0.4051 | 280.35
339.14 K, x1 = 0.4986 | 284.12
339.14 K, x1 = 0.5981 | 286.77
339.14 K, x1 = 0.7015 | 288.43
339.14 K, x1 = 0.8023 | 288.55
339.14 K, x1 = 0.9139 | 287.89
339.14 K, x1 = 0.9609 | 287.02
340.15 K, x1 = 0.0061 | 241.53
340.15 K, x1 = 0.0249 | 242.15
340.15 K, x1 = 0.0494 | 244.83
340.15 K, x1 = 0.1 | 252.82
340.15 K, x1 = 0.1547 | 260.57
340.15 K, x1 = 0.1999 | 266.02
340.15 K, x1 = 0.2993 | 274.71
340.15 K, x1 = 0.4051 | 280.76
340.15 K, x1 = 0.4986 | 284.68
340.15 K, x1 = 0.5981 | 287.28
340.15 K, x1 = 0.7015 | 289.07
340.15 K, x1 = 0.8023 | 289.24
340.15 K, x1 = 0.9139 | 288.58
340.15 K, x1 = 0.9609 | 287.73
341.14 K, x1 = 0.0249 | 242.51
341.14 K, x1 = 0.9139 | 289.17
341.16 K, x1 = 0.0061 | 241.89
341.16 K, x1 = 0.0494 | 245.03
341.16 K, x1 = 0.1 | 252.79
341.16 K, x1 = 0.1547 | 260.64
341.16 K, x1 = 0.1999 | 266.06
341.16 K, x1 = 0.2993 | 274.84
341.16 K, x1 = 0.4051 | 281
341.16 K, x1 = 0.4986 | 284.87
341.16 K, x1 = 0.5981 | 287.66
341.16 K, x1 = 0.7015 | 289.5
341.16 K, x1 = 0.8023 | 289.74
341.16 K, x1 = 0.9609 | 288.3
342.14 K, x1 = 0.0061 | 242.38
342.14 K, x1 = 0.0249 | 242.91
342.14 K, x1 = 0.0494 | 245.35
342.14 K, x1 = 0.1 | 253
342.14 K, x1 = 0.1547 | 260.67
342.14 K, x1 = 0.1999 | 266.17
342.14 K, x1 = 0.2993 | 275.1
342.14 K, x1 = 0.4051 | 281.32
342.14 K, x1 = 0.4986 | 285.37
342.14 K, x1 = 0.5981 | 288.22
342.14 K, x1 = 0.7015 | 290.08
342.14 K, x1 = 0.8023 | 290.39
342.14 K, x1 = 0.9139 | 289.86
342.14 K, x1 = 0.9609 | 288.96
343.15 K, x1 = 0.0061 | 242.71
343.15 K, x1 = 0.0249 | 243.18
343.15 K, x1 = 0.0494 | 245.62
343.15 K, x1 = 0.1 | 253.03
343.15 K, x1 = 0.1547 | 260.73
343.15 K, x1 = 0.1999 | 266.34
343.15 K, x1 = 0.2993 | 275.23
343.15 K, x1 = 0.4051 | 281.6
343.15 K, x1 = 0.4986 | 285.7
343.15 K, x1 = 0.5981 | 288.61
343.15 K, x1 = 0.7015 | 290.51
343.15 K, x1 = 0.8023 | 290.89
343.15 K, x1 = 0.9139 | 290.38
343.15 K, x1 = 0.9609 | 289.53
344.16 K, x1 = 0.0061 | 243.26
344.16 K, x1 = 0.0249 | 243.63
344.16 K, x1 = 0.0494 | 245.97
344.16 K, x1 = 0.1 | 253.15
344.16 K, x1 = 0.1547 | 260.83
344.16 K, x1 = 0.1999 | 266.48
344.16 K, x1 = 0.2993 | 275.42
344.16 K, x1 = 0.4051 | 281.89
344.16 K, x1 = 0.4986 | 286.07
344.16 K, x1 = 0.5981 | 289.06
344.16 K, x1 = 0.7015 | 291.07
344.16 K, x1 = 0.8023 | 291.49
344.16 K, x1 = 0.9139 | 291.02
344.16 K, x1 = 0.9609 | 290.18
345.14 K, x1 = 0.0061 | 243.73

Source: the NIST ThermoML archive (doi:10.1016/j.jct.2008.10.010)
